Laboratory results: ChEMBL document CHEMBL4680375 (ACS Med Chem Lett, 2021)
Calls of active or inactive are those of the source. The calls are words filed in the database; no cut-off is given here.

Key:
[1] = target: T1, NAD-dependent protein deacetylase sirtuin-1 (Homo sapiens, UniProt Q96EB6); experiment: Inhibition of N-terminal hexa-His-tagged human SIRT1 (156 to 664 residues) expressed in Escherichia coli BL21 (DE3) assessed as deacetylation of Abz-labeled acetyl peptide using Abz-GVLKacAYNO2GY-NH2 peptide as substrate incubated for 30 mins in presence of NAD+ by fluorescence microplate reader assay
T1 sequence (Q96EB6 whole entry): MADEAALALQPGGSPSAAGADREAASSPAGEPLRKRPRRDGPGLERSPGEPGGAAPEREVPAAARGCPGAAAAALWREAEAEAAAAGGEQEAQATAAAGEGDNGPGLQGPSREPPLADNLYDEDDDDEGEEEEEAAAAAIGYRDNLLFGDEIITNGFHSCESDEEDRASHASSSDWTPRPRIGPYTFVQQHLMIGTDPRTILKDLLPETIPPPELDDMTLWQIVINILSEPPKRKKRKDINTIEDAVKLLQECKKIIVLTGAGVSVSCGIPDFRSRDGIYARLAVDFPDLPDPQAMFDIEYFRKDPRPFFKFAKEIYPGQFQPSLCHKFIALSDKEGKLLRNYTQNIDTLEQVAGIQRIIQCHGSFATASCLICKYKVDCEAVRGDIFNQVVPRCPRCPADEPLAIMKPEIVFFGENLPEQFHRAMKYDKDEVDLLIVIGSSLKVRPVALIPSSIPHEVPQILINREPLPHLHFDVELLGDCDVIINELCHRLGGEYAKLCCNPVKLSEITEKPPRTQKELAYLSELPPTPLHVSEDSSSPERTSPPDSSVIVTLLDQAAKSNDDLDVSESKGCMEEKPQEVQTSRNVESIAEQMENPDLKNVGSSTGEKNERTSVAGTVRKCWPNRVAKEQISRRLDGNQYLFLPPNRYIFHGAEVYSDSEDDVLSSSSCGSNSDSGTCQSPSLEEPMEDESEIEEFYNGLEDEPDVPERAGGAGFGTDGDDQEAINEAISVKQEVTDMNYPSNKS

[2] = target: T2, NAD-dependent protein deacetylase sirtuin-1 (Homo sapiens) (UniProt Q96EB6); experiment: Inhibition of SIRT1 in human SH-SY5Y cells assessed as increase in acetylated p53 level at 10 uM by Western blot analysis; format: cell-based
T2 sequence (whole entry): T1 sequence (Q96EB6 whole entry)

[3] = target: T3, NAD-dependent protein deacetylase sirtuin-2 (Homo sapiens, UniProt Q8IXJ6); experiment: Inhibition of GST-fusion tagged human SIRT2 (34 to 356 residues) expressed in Escherichia coli BL21 (DE3) using Abz-GVLKacAYNO2GY-NH2 peptide as substrate incubated for 30 mins in presence of NAD+ by fluorescence microplate reader assay
T3 sequence (Q8IXJ6 whole entry): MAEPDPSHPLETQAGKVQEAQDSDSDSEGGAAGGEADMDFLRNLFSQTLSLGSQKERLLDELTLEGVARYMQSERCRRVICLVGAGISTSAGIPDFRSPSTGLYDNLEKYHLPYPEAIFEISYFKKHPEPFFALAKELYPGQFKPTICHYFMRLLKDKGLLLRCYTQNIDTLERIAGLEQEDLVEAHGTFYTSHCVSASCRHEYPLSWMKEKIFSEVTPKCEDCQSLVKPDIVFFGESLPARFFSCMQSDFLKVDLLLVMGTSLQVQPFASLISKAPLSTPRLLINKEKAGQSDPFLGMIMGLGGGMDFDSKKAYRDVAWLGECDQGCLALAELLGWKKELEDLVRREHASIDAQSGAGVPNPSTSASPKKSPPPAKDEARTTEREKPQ

[4] = target: NAD-dependent protein deacylase sirtuin-5, mitochondrial (Homo sapiens, UniProt Q9NXA8); experiment: Inhibition of N-terminal 8His-tagged human SIRT5 (34 to 302 residues) expressed in Escherichia coli Rosetta2 (DE3) using Abz-GVLKacAYNO2GY-NH2 peptide as substrate incubated for 30 mins in presence of NAD+ by fluorescence microplate reader assay
Chain of NAD-dependent protein deacylase sirtuin-5, mitochondrial (Q9NXA8 whole entry, the tested form may be a part): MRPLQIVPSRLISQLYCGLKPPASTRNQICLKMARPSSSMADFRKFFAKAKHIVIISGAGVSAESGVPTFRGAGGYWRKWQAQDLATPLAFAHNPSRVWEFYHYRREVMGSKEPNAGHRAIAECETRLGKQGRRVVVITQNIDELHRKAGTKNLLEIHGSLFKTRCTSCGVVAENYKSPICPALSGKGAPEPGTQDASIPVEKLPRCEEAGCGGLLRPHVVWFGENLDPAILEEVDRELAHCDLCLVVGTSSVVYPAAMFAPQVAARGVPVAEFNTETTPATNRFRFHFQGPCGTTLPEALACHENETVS

[5] = target: NAD-dependent protein deacylase sirtuin-6 (Homo sapiens, UniProt Q8N6T7); experiment: Inhibition of recombinant N-terminal hexa-His-tagged SIRT6 (3 to 318 residues) (unknown origin) expressed in Escherichia coli BL21 (DE3) using RHKKac-AMC as substrate incubated for 2 hrs in presence of NAD+ by fluorescence microplate reader assay
Chain of NAD-dependent protein deacylase sirtuin-6 (Q8N6T7 whole entry, the tested form may be a part): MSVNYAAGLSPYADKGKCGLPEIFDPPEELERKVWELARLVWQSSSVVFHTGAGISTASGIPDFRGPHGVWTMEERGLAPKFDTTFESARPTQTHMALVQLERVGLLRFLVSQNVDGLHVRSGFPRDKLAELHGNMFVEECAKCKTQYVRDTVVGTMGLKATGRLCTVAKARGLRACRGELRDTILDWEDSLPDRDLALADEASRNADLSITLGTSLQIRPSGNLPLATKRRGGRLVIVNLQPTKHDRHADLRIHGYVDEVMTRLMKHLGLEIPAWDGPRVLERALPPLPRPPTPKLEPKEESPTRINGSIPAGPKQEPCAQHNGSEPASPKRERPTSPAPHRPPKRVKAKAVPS

[6] = target: T2, NAD-dependent protein deacetylase sirtuin-1 (Homo sapiens); experiment: Inhibition of SIRT1 in human SH-SY5Y cells assessed as increase in acetylated p53 level at 10 uM measured after 72 hrs in presence of ATRA by Western blot analysis; format: cell-based
[7] = target: T2, NAD-dependent protein deacetylase sirtuin-1 (Homo sapiens); experiment: Inhibition of SIRT1 in human SH-SY5Y cells assessed as increase in ratio of acetylated p53 to p53 level by Western blot analysis; format: cell-based; conditions: dose 0.1-50 µM

| SMILES | IC50 ([1]; read-out: IC50) [µM] | further results |
| --- | --- | --- |
| COc1cc(OC)c(C=C2C(=O)OC(C)(c3ccccc3)OC2=O)cc1Br (stereo not given) | 13.6 | – |
| CC(C)(C)c1cc(C=C2C(=O)OC(c3ccccc3)OC2=O)cc(C(C)(C)C)c1O (stereo not given) | 19 | – |
| COc1ccc(OC)c(C=C2C(=O)OC(C)(c3ccccc3)OC2=O)c1 (stereo not given) | 16.8 | – |
| O=C1OC(c2ccccc2)OC(=O)C1=Cc1cc(F)c(O)c(F)c1 (stereo not given) | 4.54 | – |
| CC1=C(/C=C/C(C)=C/C=C/C(C)=C/C(=O)O)C(C)(C)CCC1 | – | inhibition [2]: inactive |
| O=C1OC(c2ccccc2)OC(=O)C1=Cc1ccc(O)c(F)c1 (stereo not given) | 4.65 | – |
| O=C1OC(c2ccccc2)OC(=O)C1=Cc1ccc(OCc2cccc(C(=O)O)c2)cc1 (stereo not given) | 10 | – |
| COc1cc(C=C2C(=O)OC(c3ccccc3)OC2=O)cc(C(=O)OCc2ccccc2)c1O (stereo not given) | 2.66 | – |
| CC1(c2ccccc2)OC(=O)C(=Cc2ccccc2)C(=O)O1 (stereo not given) | – | IC50 [1]: Not Active |
| COc1cc(C=C2C(=O)OC(c3ccccc3)OC2=O)c(Br)cc1O (stereo not given) | 3.52 | – |
| CCOc1cc(C=C2C(=O)OC(c3ccccc3)OC2=O)cc(Br)c1O (stereo not given) | 1.14 | – |
| O=C1OC(c2ccccc2)OC(=O)C1=Cc1ccc(Cl)cc1 (stereo not given) | 18.8 | – |
| COc1cc(C=C2C(=O)OC(c3ccccc3)OC2=O)cc(Cc2ccccc2)c1O (stereo not given) | 2.47 | – |
| CCOc1cc(C=C2C(=O)OC(C)(c3ccccc3)OC2=O)ccc1O (stereo not given) | 7.92 | – |
| O=C1OC(c2ccccc2)OC(=O)C1=Cc1ccc(O)cc1 (stereo not given) | 6.33 | – |
| CCOc1cc(C=C2C(=O)OC(c3ccccc3)OC2=O)cc([N+](=O)[O-])c1O (stereo not given) | 3.69 | – |
| O=C1OC(c2ccccc2)OC(=O)C1=Cc1ccc(O)c(OCc2ccccc2)c1 (stereo not given) | 2.52 | – |
| O=C1OC(c2ccccc2)OC(=O)C1=Cc1ccc(O)cc1Br (stereo not given) | 3.56 | – |
| O=C1OC(c2ccccc2)OC(=O)C1=Cc1ccc(O)c(OCC2CC2)c1 (stereo not given) | 2.48 | – |
| COc1cc(C=C2C(=O)OC(c3ccccc3)OC2=O)cc(Cl)c1O (stereo not given) | 1.9 | increase in acetylated p53 level (qualitative) [6]: Active |
| COc1ccc(C=C2C(=O)OC(c3ccccc3)OC2=O)c(OC)c1OC (stereo not given) | 15.8 | – |
| Cc1cc(C=C2C(=O)OC(c3ccccc3)OC2=O)cc(C)c1O (stereo not given) | 3.07 | – |
| Cc1cc(C=C2C(=O)OC(c3ccccc3)OC2=O)ccc1O (stereo not given) | 5.41 | – |
| Nc1c(I)cc(C=C2C(=O)OC(c3ccccc3)OC2=O)cc1I (stereo not given) | 10.2 | – |
| NC(=O)[C@@H]1CCCc2c1[nH]c1ccc(Cl)cc21 | – | IC50 [4]: Not Active; IC50 [5]: Not Active |

Second part, led by results:

| IC50 ([1]; read-out: IC50) [µM] | SMILES | further results |
| --- | --- | --- |
| 5.49 | CCOc1cc(C=C2C(=O)OC(c3ccccc3)OC2=O)ccc1O (stereo not given) | – |
| 0.7 | O=C1OC(c2ccccc2)OC(=O)C1=Cc1cc(Br)c(O)c(Br)c1 (stereo not given) | – |
| 14.4 | COc1ccccc1C=C1C(=O)OC(C)(c2ccccc2)OC1=O (stereo not given) | – |
| 11.9 | COc1cc(C=C2C(=O)OC(c3ccccc3)OC2=O)cc(OC)c1O (stereo not given) | – |
| 0.68 | O=C1OC(c2ccccc2)OC(=O)C1=Cc1cc(Br)c(O)c(OCc2ccccc2)c1 (stereo not given) | – |
| 3.84 | O=C1OC(c2ccccc2)OC(=O)C1=Cc1ccc(O)c(Cl)c1 (stereo not given) | – |
| 0.89 | COc1cc(C=C2C(=O)OC(c3ccccc3)OC2=O)cc(I)c1O (stereo not given) | IC50 [3]: 49.4 µM; IC50 ([4]; read-out: IC50): 22.4 µM; IC50 [5]: Not Active; increase in acetylated p53 level (qualitative) [6]: Active |
| 8.14 | COc1cc(C=C2C(=O)OC(c3ccccc3)OC2=O)ccc1OCc1ccc2c(c1)OCO2 (stereo not given) | – |
| 1.2 | O=C1OC(c2ccccc2)OC(=O)C1=Cc1cc(Cl)c(O)c(Cl)c1 (stereo not given) | IC50 [3]: 56.4 µM; IC50 ([4]; read-out: IC50): 37.4 µM; IC50 [5]: Not Active; increase in acetylated p53 level (qualitative) [6]: Active |
| 3.76 | O=C1OC(c2ccccc2)OC(=O)C1=Cc1ccc(O)cc1F (stereo not given) | – |
| 1.4 | O=C1OC(c2ccccc2)OC(=O)C1=Cc1ccc(O)c(Br)c1 (stereo not given) | – |
| 0.46 | O=C1OC(c2ccccc2)OC(=O)C1=Cc1cc(I)c(O)c(I)c1 (stereo not given) | IC50 [3]: 52.2 µM; IC50 ([4]; read-out: IC50): 4.98 µM; IC50 [5]: Not Active; increase in acetylated p53 level (qualitative) [6]: Active; inhibition [7]: Dose-dependent effect |
| 0.61 | O=C1OC(c2ccccc2)OC(=O)C1=Cc1cc(I)c(O)c(OCc2ccccc2)c1 (stereo not given) | – |
| 3.49 | COc1cc(C=C2C(=O)OC(c3ccccc3)OC2=O)cc([N+](=O)[O-])c1O (stereo not given) | – |
| 12.9 | COc1cc(C=C2C(=O)OC(C)(c3ccccc3)OC2=O)ccc1OCc1cccc(C(=O)O)c1 (stereo not given) | – |
| 3.1 | CCc1cc(C=C2C(=O)OC(c3ccccc3)OC2=O)cc(CC)c1O (stereo not given) | – |
| 7.06 | CC1(c2ccccc2)OC(=O)C(=Cc2ccc(O)cc2)C(=O)O1 (stereo not given) | – |
| 4.4 | Cc1cc(C=C2C(=O)OC(c3ccccc3)OC2=O)c(C)cc1O (stereo not given) | – |
| 7.63 | Nc1c(Br)cc(C=C2C(=O)OC(c3ccccc3)OC2=O)cc1Br (stereo not given) | – |
| 14 | CC(C)Oc1cccc(C=C2C(=O)OC(c3ccccc3)OC2=O)c1 (stereo not given) | – |
